This note sets out measurements from publication PMC3953731 (FEBS Open Bio, 2014).

Read-outs that look alike come from different tables or passages of the source.

Experiment [1] concerns the four isomaltases (Ima1p, Ima2p, Ima3p, Ima5p). As to the kind of experiment: Effects of chemical reagents and metal ions on purified isomaltases. The experiment is classed as biochemical, Saccharomyces cerevisiae.
The target in experiment [2] is T1, Ima3p (Saccharomyces cerevisiae, UniProt P0CW40). The following applies: addition of EDTA, 5 mM; 5 mM pNPG as substrate.
Experiment [3] deals with T2, Ima1p (Saccharomyces cerevisiae, UniProt P53051). As to the kind of experiment: Effects of chemical reagents and metal ions on purified isomaltases. In kind it is biochemical. The following applies: 5 mM pNPG as substrate; for effect on activity: Mg2+ 5 mM, Mn2+ 1 mM.
Experiment [4] has as its target T2, Ima1p. In words: Substrate specificity of purified isomaltase. In kind it is biochemical. The following applies: 100 mM substrate (pNPG 5 mM), pH 7, 30 °C; for Specific activities: citrate–potassium phosphate buffer.
For experiment [5], the target named is T3, Ima2p (Saccharomyces cerevisiae, UniProt Q08295). As to the kind of experiment: Substrate specificity of purified isomaltase. The experiment is classed as biochemical. The conditions noted are these: 100 mM substrate (pNPG 5 mM), pH 7, 30 °C; for Specific activities: citrate–potassium phosphate buffer.
Experiment [6] deals with T1, Ima3p. In words: Substrate specificity of purified isomaltase. The experiment is classed as biochemical. The conditions noted are these: 100 mM substrate (pNPG 5 mM), pH 7, 30 °C; for Specific activities: citrate–potassium phosphate buffer.
Experiment [7] deals with T4, Ima5p (Saccharomyces cerevisiae, UniProt P40884).
T4 sequence (P40884 1-581): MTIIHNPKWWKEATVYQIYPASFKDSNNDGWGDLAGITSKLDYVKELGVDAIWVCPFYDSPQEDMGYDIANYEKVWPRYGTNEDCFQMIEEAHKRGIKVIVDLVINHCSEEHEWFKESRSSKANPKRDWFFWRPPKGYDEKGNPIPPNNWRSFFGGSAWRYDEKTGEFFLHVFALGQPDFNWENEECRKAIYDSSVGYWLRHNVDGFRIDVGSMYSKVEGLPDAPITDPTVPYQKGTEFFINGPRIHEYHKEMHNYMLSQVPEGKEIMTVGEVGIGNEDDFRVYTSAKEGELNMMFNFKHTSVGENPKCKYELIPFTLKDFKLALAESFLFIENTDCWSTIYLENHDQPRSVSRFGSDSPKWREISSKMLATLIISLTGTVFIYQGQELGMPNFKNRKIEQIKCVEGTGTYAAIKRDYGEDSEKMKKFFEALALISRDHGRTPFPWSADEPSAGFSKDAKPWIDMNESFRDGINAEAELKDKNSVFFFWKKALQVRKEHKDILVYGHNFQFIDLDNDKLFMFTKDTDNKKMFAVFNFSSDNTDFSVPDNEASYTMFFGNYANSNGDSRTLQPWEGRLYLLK
As to the kind of experiment: Substrate specificity of purified isomaltase. The following applies: 100 mM substrate (pNPG 5 mM), pH 7, 30 °C; for Specific activities: citrate–potassium phosphate buffer. In kind it is biochemical.

A further experiment deals with Ima3pL240P (Saccharomyces cerevisiae, UniProt P0CW40, L240P). As to the kind of experiment: Substrate specificity of purified isomaltase variant. The conditions noted are these: 100 mM substrate (pNPG 5 mM), citrate–potassium phosphate buffer, pH 7, 30 °C. In kind it is biochemical.
A further experiment deals with Ima3pR279Q (Saccharomyces cerevisiae, UniProt P0CW40, R279Q). Described as above. The experiment is classed as biochemical. The following applies: 100 mM substrate (pNPG 5 mM), citrate–potassium phosphate buffer, pH 7, 30 °C.
Experiment [8] addresses T2, Ima1p. As to the kind of experiment: Kinetic parameters for selected substrates. In kind it is biochemical. The following applies: for Km: affinity constant for the substrate; for Km / kcat: mean ± SEM.
Experiment [9] addresses T3, Ima2p. As to the kind of experiment: Kinetic parameters for selected substrates. The experiment is classed as biochemical.
For experiment [10], the target named is T1, Ima3p. As to the kind of experiment: Kinetic parameters for selected substrates. In kind it is biochemical.
Experiment [11] concerns the target T4, Ima5p. As to the kind of experiment: Kinetic parameters for selected substrates. The experiment is classed as biochemical.
For experiment [12], the system named is the four isomaltases (Ima proteins). As to the kind of experiment: Effect of compounds on melting temperature of isomaltases. On the set-up: species or system Saccharomyces cerevisiae. The following applies: Tris 5 mM, assay at pH 7.0, results not shown.
For experiment [13], the target named is T2, Ima1p. As to the kind of experiment: Inhibition by acarbose of isomaltose hydrolysis. In kind it is biochemical. The conditions noted are these: read-out: residual activity.
For experiment [14], the system named is the four isomaltases (Ima1p, Ima2p, Ima3p, Ima5p). In words: Activity of the isomaltases on substrates. The experiment is classed as biochemical, Saccharomyces cerevisiae. The following applies: for activity on the substrate: all Ima proteins.
The mark [15] stands for this setting: inhibition by high concentration of substrate.
Setting [16] is: affinity constant for the substrate, mean ± SEM.
Setting [17] is: substrate concentration increased to 10 mM.

Chain of Ima3pL240P (P0CW40 whole entry L240P): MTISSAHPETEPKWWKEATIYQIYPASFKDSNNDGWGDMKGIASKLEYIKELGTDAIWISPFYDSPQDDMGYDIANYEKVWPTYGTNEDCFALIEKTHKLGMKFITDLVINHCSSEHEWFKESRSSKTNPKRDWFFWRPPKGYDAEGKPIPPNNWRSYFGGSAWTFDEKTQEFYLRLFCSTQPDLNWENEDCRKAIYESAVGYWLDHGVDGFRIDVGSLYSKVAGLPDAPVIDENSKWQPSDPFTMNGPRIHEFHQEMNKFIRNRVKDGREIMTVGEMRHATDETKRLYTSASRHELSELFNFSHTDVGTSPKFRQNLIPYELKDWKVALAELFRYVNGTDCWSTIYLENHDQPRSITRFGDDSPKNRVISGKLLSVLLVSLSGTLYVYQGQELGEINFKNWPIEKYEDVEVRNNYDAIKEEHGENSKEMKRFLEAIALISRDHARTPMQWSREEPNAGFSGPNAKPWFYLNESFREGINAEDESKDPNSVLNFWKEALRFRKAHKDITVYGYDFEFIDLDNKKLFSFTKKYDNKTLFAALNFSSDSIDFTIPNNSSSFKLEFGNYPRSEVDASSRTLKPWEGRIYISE
T1 sequence (P0CW40 whole entry): as the sequence (P0CW40 whole entry L240P) above, with P240L counted along it
T2 sequence (P53051 whole entry): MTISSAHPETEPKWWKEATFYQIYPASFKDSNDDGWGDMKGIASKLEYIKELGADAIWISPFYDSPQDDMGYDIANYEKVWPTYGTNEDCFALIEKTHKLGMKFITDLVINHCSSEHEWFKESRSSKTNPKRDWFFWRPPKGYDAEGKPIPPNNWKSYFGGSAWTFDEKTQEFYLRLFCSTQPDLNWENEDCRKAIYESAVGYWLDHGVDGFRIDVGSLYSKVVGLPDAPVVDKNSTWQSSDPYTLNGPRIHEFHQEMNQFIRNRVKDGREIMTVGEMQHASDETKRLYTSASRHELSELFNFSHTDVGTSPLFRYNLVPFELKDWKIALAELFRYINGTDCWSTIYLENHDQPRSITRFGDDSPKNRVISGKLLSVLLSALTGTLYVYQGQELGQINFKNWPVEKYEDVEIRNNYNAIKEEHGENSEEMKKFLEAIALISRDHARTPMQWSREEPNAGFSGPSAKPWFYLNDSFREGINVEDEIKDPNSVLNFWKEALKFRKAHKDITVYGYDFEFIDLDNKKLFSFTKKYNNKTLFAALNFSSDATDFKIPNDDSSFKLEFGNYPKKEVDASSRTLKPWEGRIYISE
Chain of Ima3pR279Q (P0CW40 whole entry R279Q): as the sequence (P0CW40 whole entry L240P) above, with P240L, R279Q counted along it
T3 sequence (Q08295 whole entry): as the sequence (P0CW40 whole entry L240P) above, with T54A, R279Q counted along it

As for `[Ca+2]` [Ca^2+], the effect on activity result in experiment [1] (addition of Ca2+, 5 mM) was “None of the isoforms was affected”.

Consider `O=C(O)CN(CCN(CC(=O)O)CC(=O)O)CC(=O)O` [EDTA], for which, at Ima3p [2], the effect on activity entry is “slightly inhibited”.

Compound `[Fe+3]` [Fe^3+] had a residual activity at Ima1p [3] (5 mM Fe3+, pH 7, 30 °C) of 8%.

As to `[Mg+2]` [Mg^2+], at Ima1p [3], the effect on activity result is listed as “slightly enhanced”.

With `[Mn+2]` [Mn^2+], the effect on activity result on Ima1p [3] is recorded as “slightly enhanced”.

Consider `OC[C@H]1O[C@H](OC[C@H]2O[C@H](O[C@H]3[C@H](O)[C@@H](O)C(O)O[C@@H]3CO)[C@H](O)[C@@H](O)[C@@H]2O)[C@H](O)[C@@H](O)[C@@H]1O` (stereo partly drawn) [Panose, O-α-D-Glucosyl-(1→6)-α-D-glucosyl-(1→4)-D-glucose], for which the Specific activities at Ima1p [4] was 3.1 µmol/min/mg; on Ima2p [5], 2.9 µmol/min/mg; on Ima3p [6], 0 µmol/min/mg; at Ima5p [7], 11 µmol/min/mg; on Ima3pL240P it was 0 µmol/min/mg; at Ima3pR279Q, 3.1 µmol/min/mg. Also, the “relative activity, velocity on isomaltose set to 100” value (“relative activity, velocity” below) came to 5% at Ima1p [4], 5% on Ima2p [5] and 17% on Ima5p [7]. For the same compound, the Km was found to be 82 ± 17 mM on Ima1p [8] and 82 ± 12 mM at Ima5p [11] (setting [16]). Moreover, the Ki entry on Ima1p [8] (setting [15]), on Ima2p [9] (setting [15]), on Ima3p [10] (setting [15]) and on Ima5p [11] (setting [15]) was “None” throughout. Besides, the kcat was 6.3 ± 0.5 s⁻¹ on Ima1p [8], 7.7 ± 0.7 s⁻¹ on Ima2p [9] (mean ± SEM), 0 s⁻¹ at Ima3p [10] (mean ± SEM) and 23 ± 1 s⁻¹ at Ima5p [11] (mean ± SEM). Also, the “more activity of Ima5p than Ima1p” value at Ima5p [11] (whatsoever the panose concentration) is reported as 3.5 fold.

For `OC[C@H]1O[C@@](CO)(O[C@H]2O[C@H](CO)[C@@H](O)[C@H](O)[C@H]2O)[C@@H](O)[C@@H]1O` [Sucrose, O-α-D-Glucosyl-(1→2)-β-D-fructose], the Specific activities at Ima1p [4] was found to be 18.6 µmol/min/mg; at Ima2p [5], 19.7 µmol/min/mg; on Ima3p [6], 10.2 µmol/min/mg; on Ima5p [7] it was 1.2 µmol/min/mg; on Ima3pL240P, 11.2 µmol/min/mg; on Ima3pR279Q, 22 µmol/min/mg. The “relative activity, velocity” value at Ima1p [4] is given as 31%; on Ima1p [4] (listed as sucrose) it was “approx. 35%”; at Ima2p [5], 36%; at Ima2p [5] (listed as sucrose), “approx. 35%”; at Ima3p [6], 142%; on Ima5p [7], 2%. Further, the Ki entry at Ima1p [8] (setting [15]), at Ima2p [9] (setting [15]), on Ima3p [10] (setting [15]) and on Ima5p [11] (setting [15]) was “None” in each case. For the same compound, the kcat at Ima1p [8] amounted to 51 ± 4 s⁻¹; on Ima2p [9] (mean ± SEM), 55 ± 4 s⁻¹; at Ima3p [10] (mean ± SEM) it was 25 ± 1 s⁻¹; on Ima5p [11] (mean ± SEM), 3.8 ± 0.2 s⁻¹. The “catalytic efficiency on sucrose, times lower than on isomaltose” value on Ima3p [10] was found to be 2 times. Besides, the “catalytic efficiency on sucrose, times lower than on palatinose” value at Ima3p [10] is recorded as 4 times. In addition, the “lower activity of Ima5p than Ima1p” value at Ima5p [11] was found to be 10 fold.

`NC(CO)(CO)CO` [Tris]: the “inhibition of the activity” value in experiment [1] (5 mM Tris) is listed as 90%. For the same compound, the “increase of Tm of the 4 proteins” value in experiment [12] is “about 5 °C”.

In the case of `C[C@H]1O[C@H](O[C@H]2[C@H](O)[C@@H](O)[C@@H](O[C@H]3[C@H](O)[C@@H](O)C(O)O[C@@H]3CO)O[C@@H]2CO)[C@H](O)[C@@H](O)[C@@H]1N[C@H]1C=C(CO)[C@@H](O)[C@H](O)[C@H]1O` (stereo partly shown) [acarbose], on Ima1p [13], the remaining activity at 5000 µM is approximately 80% and the remaining activity at 20000 µM is approximately 40%.

Take `OC[C@H]1O[C@H](OC[C@H]2O[C@H](O)[C@H](O)[C@@H](O)[C@@H]2O)[C@H](O)[C@@H](O)[C@H]1O` [melibiose, O-α-D-galactosyl-(1→6)-α-D-glucose]: the “activity on the substrate” value in experiment [14] was “inactive”.

`COC1OC(CO)C(O)C(O)C1O` (stereo not drawn) [α-MG, α-Methylglucopyranoside]: the Specific activities is 52 µmol/min/mg at Ima1p [4]; 55 µmol/min/mg at Ima2p [5]; 11 µmol/min/mg on Ima3p [6]; 0 (0) μmol/min/mg at Ima5p [7]; 6.5 µmol/min/mg on Ima3pL240P; 50 µmol/min/mg on Ima3pR279Q. For the same compound, the “relative activity, velocity” value at Ima1p [4] is on record as 87%; at Ima2p [5], 102%; on Ima3p [6], 153%; at Ima5p [7], 0 (0) %. Also, the Michaelis constant (Km) is 27 ± 5 mM at Ima1p [8], 28 ± 6 mM at Ima2p [9] (setting [16]) and 15 ± 2 mM on Ima3p [10] (setting [16]). For the same compound, the kcat on Ima1p [8] worked out at 84 ± 8 s⁻¹; at Ima2p [9] (mean ± SEM), 88 ± 9 s⁻¹; at Ima3p [10] (mean ± SEM) it was 14 ± 1 s⁻¹; at Ima5p [11] (mean ± SEM) it was 0 s⁻¹. Also, the Ki entry on Ima3p [10] (setting [15]) and at Ima5p [11] (setting [15]) was “None” in each case.

In the case of `O=[N+]([O-])c1ccc(O[C@H]2O[C@H](CO)[C@@H](O)[C@H](O)[C@H]2O)cc1` [α-pNPG, 4-Nitrophenyl α-D-glucopyranoside], the Specific activities at Ima1p [4] stood at 5.8 µmol/min/mg; at Ima2p [5], 7.7 µmol/min/mg; on Ima3p [6] it was 3.9 µmol/min/mg; at Ima5p [7], 10 µmol/min/mg; on Ima3pL240P, 5.5 µmol/min/mg; on Ima3pR279Q, 8.5 µmol/min/mg. The “relative activity, velocity” value at Ima1p [4] came to 10%; on Ima2p [5], 14%; on Ima3p [6], 54%; on Ima5p [7], 15%. Further, the Ki stood at 25 ± 15 mM at Ima1p [8], 12 ± 3 mM at Ima2p [9], 9.8 ± 3.2 mM at Ima3p [10] and 33 ± 21 mM at Ima5p [11]. Moreover, the results for the “drop of activity at high substrate concentration” value on Ima1p [8] (setting [17]), on Ima3p [10] (setting [17]) and at Ima5p [11] (setting [17]) were 10%, 33% and 10%, respectively. Moreover, the Michaelis constant (Km) in experiment [14] (read-out: affinity constants (Km), approximate, over the Ima proteins) was approximately 0.5 mM.

On to `O=[N+]([O-])c1ccc(O[C@@H]2O[C@H](CO)[C@@H](O)[C@H](O)[C@H]2O)cc1` [β-pNPG, 4-Nitrophenyl β-D-glucopyranoside], for which the Specific activities on Ima1p [4], on Ima2p [5], on Ima3p [6] and at Ima5p [7] was 0 µmol/min/mg in each case. The “activity on the substrate” value in experiment [14] was “no release of pNP”.

Consider maltoheptaose, for which the “activity on the substrate” value in experiment [14] is “No activity could be detected”.

For the compound maltopentaose, in experiment [14], the “activity on the substrate” value is recorded as “No activity could be detected”.
